Assay results taken from patent US20070128217A1 (priority 2003, published 2007).

Columns and labels:
[1] = test system: antibodies in sera from SARS patients (sera 1a, 1b, 2, 6, 37, 62, London, SARS-yellow, SARS-green); type: binding, human; parameters: Binding of serum 6 to linear peptides of protein X1 of SARS-CoV Urbani / Binding of serum 37 to linear peptides of protein X1 of SARS-CoV Urbani / Binding of serum 6 to looped/cyclic peptide (PEPSCAN-ELISA) / Binding of serum 37 to looped/cyclic peptide (PEPSCAN-ELISA) / Binding of serum 37 to looped/cyclic peptides of protein X1 of SARS-CoV Urbani / Binding of serum 6 to linear peptides of protein X2 / Binding of serum 37 to linear peptides of protein X2 / Binding of serum 37 to looped/cyclic peptides of protein X2 of SARS-CoV Urbani / Binding of serum 6 to linear peptides of protein M of SARS-CoV Urbani / Binding of serum 37 to linear peptides of protein M of SARS-CoV Urbani / Binding of serum 6 to looped/cyclic peptides of protein M of SARS-CoV Urbani / Binding of serum 37 to looped/cyclic peptides of protein M of SARS-CoV Urbani / Binding of serum 6 to linear peptides of protein X3 of SARS-CoV Urbani / Binding of serum 37 to linear peptides of protein X3 of SARS-CoV Urbani / Binding of serum 37 to looped/cyclic peptides of protein X3 of SARS-CoV Urbani / Binding of serum 6 to linear peptides of protein X4 of SARS-CoV Urbani / Binding of serum 37 to linear peptides of protein X4 of SARS-CoV Urbani / Binding of serum 37 to looped/cyclic peptides of protein X4 of SARS-CoV Urbani / Binding of serum 6 to linear peptides of protein X5 of SARS-CoV Urbani / Binding of serum 37 to linear peptides of protein X5 of SARS-CoV Urbani / Binding of serum 37 to looped/cyclic peptides of protein X5 of SARS-CoV Urbani / Binding of serum 6 to linear peptides of protein N of SARS-CoV Urbani / Binding of serum 37 to linear peptides of protein N of SARS-CoV Urbani / Binding of serum 6 to linear peptide (PEPSCAN-ELISA) / Binding of serum 1a to looped/cyclic peptides of protein N of SARS-CoV Urbani / Binding of serum 1b to looped/cyclic peptides of protein N of SARS-CoV Urbani / Binding of serum 2 to looped/cyclic peptides of protein N of SARS-CoV Urbani / Binding of serum 6 to looped/cyclic peptides of protein N of SARS-CoV Urbani / Binding of serum 37 to looped/cyclic peptides of protein N of SARS-CoV Urbani / Binding of serum 62 to looped/cyclic peptides of protein N of SARS-CoV Urbani / Binding of serum London to looped/cyclic peptides of protein N of SARS-CoV Urbani / Binding of serum SARS-green to looped/cyclic peptides of protein N of SARS-CoV Urbani: unit not given here
[2] = test system: control sera (pooled serum of ten healthy LUMC hospital workers; commercial negative donor pooled serum from the Dutch bloodbank); type: binding, human; parameters: Binding of Control serum LUMC to linear peptides / Binding of Control serum Blood-bank to linear peptides / Binding of Control serum LUMC to looped peptides / Binding of Control Serum Blood-Bank to Looped peptides / Binding of Control serum LUMC to linear peptides of the protein M of SARS-CoV Urbani / Binding of Control serum Blood-bank to linear peptides of the protein M of SARS-CoV Urbani / Binding of Control serum LUMC to looped peptides of the protein M of SARS-CoV Urbani / Binding of Control Serum Blood-Bank to Looped peptides of the protein M of SARS-CoV Urbani: unit not given here
[3] = test system: rabbit serum obtained by immunizing a rabbit with the SARS-CoV strain Frankfurt 1; type: binding; parameters: Binding of a rabbit serum to linear peptides / Binding of a rabbit serum to looped peptides / Rabbit serum linear peptides / Rabbit serum looped peptides / Binding of a rabbit serum to linear peptides of protein N of SARS-CoV Urbani (Rabbit serum linear peptides) / Binding of a rabbit serum to looped/cyclic peptides of protein N of SARS-CoV Urbani (Rabbit serum looped peptides): unit not given here

VKDYVVVHGYFTEVY
Binding of serum 1a to linear peptides of protein X1 of SARS-CoV Urbani [1]: 0.7
Binding of serum 1a to looped/cyclic peptides of protein X1 of SARS-CoV Urbani [1]: 0.5
Binding of serum 1b to linear peptides of protein X1 of SARS-CoV Urbani [1]: 0.6
Binding of serum 1b to looped/cyclic peptides of protein X1 of SARS-CoV Urbani [1]: 0.4
Binding of serum 2 to linear peptides of protein X1 of SARS-CoV Urbani [1]: 0.4
Binding of serum 2 to looped/cyclic peptides of protein X1 of SARS-CoV Urbani [1]: 0.4
Binding of serum 6 to linear peptides of protein X1 of SARS-CoV Urbani [1]: 0.4
Binding of serum 6 to looped/cyclic peptides of protein X1 of SARS-CoV Urbani [1]: 0.2
Binding of serum 37 to linear peptides of protein X1 of SARS-CoV Urbani [1]: 0.6
Binding of serum 37 to looped/cyclic peptides of protein X1 of SARS-CoV Urbani [1]: 0.6
Binding of serum 62 to linear peptides of protein X1 of SARS-CoV Urbani [1]: 0.5
Binding of serum 62 to looped/cyclic peptides of protein X1 of SARS-CoV Urbani [1]: 0.5
Binding of serum London to linear peptides of protein X1 of SARS-CoV Urbani [1]: 0.2
Binding of serum London to looped/cyclic peptides of protein X1 of SARS-CoV Urbani [1]: 0.2
Binding of serum SARS-green to linear peptides of protein X1 of SARS-CoV Urbani [1]: 0.2
Binding of serum SARS-green to looped/cyclic peptides of protein X1 of SARS-CoV Urbani [1]: 0.2
Binding of serum SARS-yellow to linear peptides of protein X1 of SARS-CoV Urbani [1]: 0.4
Binding of serum SARS-yellow to looped/cyclic peptides of protein X1 of SARS-CoV Urbani [1]: 0.5
Binding of Control Serum Blood-Bank to Looped peptides [2]: 0.5
Binding of Control serum Blood-bank to linear peptides [2]: 0.5
Binding of Control serum LUMC to linear peptides [2]: 0.5
Binding of Control serum LUMC to looped peptides [2]: 0.6
Binding of a rabbit serum to linear peptides [3]: 0.1
Binding of a rabbit serum to looped peptides [3]: 0.6

VLAAVYRINWVTGGI
Binding of serum 1a to linear peptides of protein M of SARS-CoV Urbani [1]: 0.8
Binding of serum 1a to looped/cyclic peptides of protein M of SARS-CoV Urbani [1]: 0.6
Binding of serum 1b to linear peptides of protein M of SARS-CoV Urbani [1]: 0.7
Binding of serum 1b to looped/cyclic peptides of protein M of SARS-CoV Urbani [1]: 0.5
Binding of serum 2 to linear peptides of protein M of SARS-CoV Urbani [1]: 0.7
Binding of serum 2 to looped/cyclic peptides of protein M of SARS-CoV Urbani [1]: 0.6
Binding of serum 6 to linear peptides of protein M of SARS-CoV Urbani [1]: 0.5
Binding of serum 6 to looped/cyclic peptides of protein M of SARS-CoV Urbani [1]: 0.7
Binding of serum 37 to linear peptides of protein M of SARS-CoV Urbani [1]: 0.6
Binding of serum 37 to looped/cyclic peptides of protein M of SARS-CoV Urbani [1]: 0.6
Binding of serum 62 to linear peptides of protein M of SARS-CoV Urbani [1]: 0.6
Binding of serum 62 to looped/cyclic peptides of protein M of SARS-CoV Urbani [1]: 0.5
Binding of serum London to linear peptides of protein M of SARS-CoV Urbani [1]: 0.4
Binding of serum London to looped/cyclic peptides of protein M of SARS-CoV Urbani [1]: 0.2
Binding of serum SARS-green to linear peptides of protein M of SARS-CoV Urbani [1]: 0.6
Binding of serum SARS-green to looped/cyclic peptides of protein M of SARS-CoV Urbani [1]: 0.2
Binding of serum SARS-yellow to linear peptides of protein M of SARS-CoV Urbani [1]: 0.2
Binding of serum SARS-yellow to looped/cyclic peptides of protein M of SARS-CoV Urbani [1]: 0.6
Binding of Control Serum Blood-Bank to Looped peptides of the protein M of SARS-CoV Urbani [2]: 0.8
Binding of Control serum Blood-bank to linear peptides of the protein M of SARS-CoV Urbani [2]: 0.9
Binding of Control serum LUMC to linear peptides of the protein M of SARS-CoV Urbani [2]: 1.0
Binding of Control serum LUMC to looped peptides of the protein M of SARS-CoV Urbani [2]: 0.8
Rabbit serum linear peptides [3]: 0.3
Rabbit serum looped peptides [3]: 0.0

VLKMLHSSSLTSLLK
Binding of serum 1a to linear peptides of protein X2 [1]: 0.6
Binding of serum 1a to looped/cyclic peptides of protein X2 of SARS-CoV Urbani [1]: 0.4
Binding of serum 1b to linear peptides of protein X2 [1]: 0.5
Binding of serum 1b to looped/cyclic peptides of protein X2 of SARS-CoV Urbani [1]: 0.2
Binding of serum 2 to linear peptides of protein X2 [1]: 0.5
Binding of serum 2 to looped/cyclic peptides of protein X2 of SARS-CoV Urbani [1]: 0.1
Binding of serum 6 to linear peptides of protein X2 [1]: 0.5
Binding of serum 6 to looped/cyclic peptides of protein X2 of SARS-CoV Urbani [1]: 0.1
Binding of serum 37 to linear peptides of protein X2 [1]: 0.5
Binding of serum 37 to looped/cyclic peptides of protein X2 of SARS-CoV Urbani [1]: 0.2
Binding of serum 62 to linear peptides of protein X2 [1]: 0.6
Binding of serum 62 to looped/cyclic peptides of protein X2 of SARS-CoV Urbani [1]: 0.4
Binding of serum London to linear peptides of protein X2 [1]: 0.4
Binding of serum London to looped/cyclic peptides of protein X2 of SARS-CoV Urbani [1]: 0.1
Binding of serum SARS-green to linear peptides of protein X2 [1]: 0.5
Binding of serum SARS-green to looped/cyclic peptides of protein X2 of SARS-CoV Urbani [1]: 0.2
Binding of serum SARS-yellow to linear peptides of protein X2 [1]: 0.5
Binding of serum SARS-yellow to looped/cyclic peptides of protein X2 of SARS-CoV Urbani [1]: 0.2
Binding of Control Serum Blood-Bank to Looped peptides [2]: 0.5
Binding of Control serum Blood-bank to linear peptides [2]: 0.7
Binding of Control serum LUMC to linear peptides [2]: 0.4
Binding of Control serum LUMC to looped peptides [2]: 0.3
Binding of a rabbit serum to linear peptides [3]: 0.2
Binding of a rabbit serum to looped peptides [3]: 0.3

VRYNTRGNTYSTAWL
Binding of serum 1a to linear peptides of protein X5 of SARS-CoV Urbani [1]: 0.7
Binding of serum 1a to looped/cyclic peptides of protein X5 of SARS-CoV Urbani [1]: 0.5
Binding of serum 1b to linear peptides of protein X5 of SARS-CoV Urbani [1]: 0.4
Binding of serum 1b to looped/cyclic peptides of protein X5 of SARS-CoV Urbani [1]: 0.3
Binding of serum 2 to linear peptides of protein X5 of SARS-CoV Urbani [1]: 0.4
Binding of serum 2 to looped/cyclic peptides of protein X5 of SARS-CoV Urbani [1]: 0.4
Binding of serum 6 to linear peptides of protein X5 of SARS-CoV Urbani [1]: 0.7
Binding of serum 6 to looped/cyclic peptides of protein X5 of SARS-CoV Urbani [1]: 0.3
Binding of serum 37 to linear peptides of protein X5 of SARS-CoV Urbani [1]: 0.6
Binding of serum 37 to looped/cyclic peptides of protein X5 of SARS-CoV Urbani [1]: 0.6
Binding of serum 62 to linear peptides of protein X5 of SARS-CoV Urbani [1]: 0.7
Binding of serum 62 to looped/cyclic peptides of protein X5 of SARS-CoV Urbani [1]: 0.4
Binding of serum London to linear peptides of protein X5 of SARS-CoV Urbani [1]: 0.7
Binding of serum London to looped/cyclic peptides of protein X5 of SARS-CoV Urbani [1]: 0.2
Binding of serum SARS-green to linear peptides of protein X5 of SARS-CoV Urbani [1]: 0.4
Binding of serum SARS-green to looped/cyclic peptides of protein X5 of SARS-CoV Urbani [1]: 0.6
Binding of serum SARS-yellow to linear peptides of protein X5 of SARS-CoV Urbani [1]: 0.4
Binding of serum SARS-yellow to looped/cyclic peptides of protein X5 of SARS-CoV Urbani [1]: 0.6
Binding of Control Serum Blood-Bank to Looped peptides [2]: 0.3
Binding of Control serum Blood-bank to linear peptides [2]: 0.9
Binding of Control serum LUMC to linear peptides [2]: 0.5
Binding of Control serum LUMC to looped peptides [2]: 0.5
Rabbit serum linear peptides [3]: 0.7
Rabbit serum looped peptides [3]: 1.2
